Test results published in publication PMC11378028 (RSC Advances, 2024).
Converted amounts (≈) assume the structure as drawn.

Tests used:
[1] = molecular target: S. aureus topoisomerase IV (Staphylococcus aureus, UniProt P0C1S7); assay: topoisomerase IV relaxation plate assay; type: biochemical; settings: for remaining activity at 1 µM: read-out: RA (residual activity) S. aureus topo IV
E. coli DNA gyrase = E. coli DNA gyrase (Escherichia coli, UniProt P0AES6); assay: DNA gyrase supercoiling plate assay; type: biochemical; settings: IC50 E. coli gyrase, supercoiling assay
E. coli topoisomerase IV = E. coli topoisomerase IV (Escherichia coli, UniProt P20083); assay: topoisomerase IV relaxation plate assay; type: biochemical; settings: for remaining activity at 1 µM / remaining activity at 10 µM: read-out: RA (residual activity) E. coli topo IV
S. aureus DNA gyrase = S. aureus DNA gyrase (Staphylococcus aureus, UniProt P0A0K8); assay: DNA gyrase supercoiling plate assay; type: biochemical; settings: for remaining activity at 1 µM: read-out: RA (residual activity) S. aureus gyrase
[2] = molecular target: human DNA topoisomerase IIα (Homo sapiens, UniProt P11388); assay: human DNA topoisomerase IIα inhibition; type: biochemical; settings: read-out: RA (residual activity) Human topo IIα
[3] = tested on: S. aureus ATCC 43300 (MRSA); assay: MIC, broth microdilution; type: cell-based; settings: Staphylococcus aureus, ATCC43300|MRSA, read-out: MIC S. aureus ATCC 43300 (MRSA)
[4] = tested on: E. spp. cloacae ATCC 13047; assay: MIC, broth microdilution; type: cell-based; settings: read-out: MIC E. spp. cloacae ATCC 13047
A. baumannii ATCC 17978 = assay: MIC, broth microdilution; type: cell-based; settings: Acinetobacter baumannii, ATCC17978, read-out: MIC A. baumannii ATCC 17978
[5] = tested on: S. aureus ATCC 700699 (VISA); assay: MIC, broth microdilution; type: cell-based; settings: Staphylococcus aureus, ATCC700699|VISA, read-out: MIC S. aureus ATCC 700699 (VISA)
K. pneumoniae ATCC 10031 [6] = assay: MIC, broth microdilution; type: cell-based; settings: Klebsiella pneumoniae, ATCC10031, read-out: MIC K. pneumoniae ATCC 10031
S. aureus ATCC 29213 [7] = assay: MIC, broth microdilution; type: cell-based, Staphylococcus aureus; settings: Staphylococcus aureus, ATCC29213, read-out: MIC S. aureus ATCC 29213, broth microdilution
E. coli ATCC 25922 = assay: MIC, broth microdilution; type: cell-based; settings: Escherichia coli, ATCC25922, read-out: MIC E. coli ATCC 25922
P. aeruginosa ATCC 27853 = assay: MIC, broth microdilution; type: cell-based; settings: Pseudomonas aeruginosa, ATCC27853, read-out: MIC P. aeruginosa ATCC 27853
E. faecalis ATCC 29212 = assay: MIC, broth microdilution; type: cell-based; settings: Enterococcus faecalis, ATCC29212, read-out: MIC E. faecalis ATCC 29212
A. baumannii ATCC 19606 = assay: MIC, broth microdilution; type: cell-based; settings: Acinetobacter baumannii, ATCC19606, read-out: MIC A. baumannii ATCC 19606
[8] = tested on: K. pneumoniae ATCC 700603; assay: MIC, broth microdilution; type: cell-based; settings: Klebsiella pneumoniae, ATCC700603, read-out: MIC K. pneumoniae ATCC 700603
K. aerogenes ATCC 13408 = assay: MIC, broth microdilution; type: cell-based; settings: Klebsiella aerogenes, ATCC13408, read-out: MIC K. aerogenes ATCC 13408
K. pneumoniae SE K13 = assay: MIC against fluoroquinolone-resistant clinical isolate; type: cell-based; settings: Klebsiella pneumoniae, SEK13, read-out: MIC K. pneumoniae SE K13
K. pneumoniae SE K14 = assay: as above; type: cell-based; settings: Klebsiella pneumoniae, SEK14, read-out: MIC K. pneumoniae SE K14
K. pneumoniae K9–K25 = assay: as above; type: cell-based; settings: Klebsiella pneumoniae, read-out: MIC K. pneumoniae K9–K25
MRSA clinical isolate-2 = assay: as above; type: cell-based; settings: Staphylococcus aureus, read-out: MIC MRSA clinical isolate-2
K. pneumoniae NCTC 13440 = assay: as above; type: cell-based; settings: Klebsiella pneumoniae, NCTC13440, read-out: MIC K. pneumoniae NCTC 13440
MRSA clinical isolate-1 = assay: as above; type: cell-based; settings: Staphylococcus aureus, read-out: MIC MRSA clinical isolate-1
K. pneumoniae ATCC 10031 [9] = assay: spontaneous frequency of resistance; type: cell-based, Klebsiella pneumoniae
S. aureus ATCC 29213 [10] = assay: spontaneous frequency of resistance; type: cell-based, Staphylococcus aureus

E. coli topoisomerase IV, sequence (P20083 whole entry): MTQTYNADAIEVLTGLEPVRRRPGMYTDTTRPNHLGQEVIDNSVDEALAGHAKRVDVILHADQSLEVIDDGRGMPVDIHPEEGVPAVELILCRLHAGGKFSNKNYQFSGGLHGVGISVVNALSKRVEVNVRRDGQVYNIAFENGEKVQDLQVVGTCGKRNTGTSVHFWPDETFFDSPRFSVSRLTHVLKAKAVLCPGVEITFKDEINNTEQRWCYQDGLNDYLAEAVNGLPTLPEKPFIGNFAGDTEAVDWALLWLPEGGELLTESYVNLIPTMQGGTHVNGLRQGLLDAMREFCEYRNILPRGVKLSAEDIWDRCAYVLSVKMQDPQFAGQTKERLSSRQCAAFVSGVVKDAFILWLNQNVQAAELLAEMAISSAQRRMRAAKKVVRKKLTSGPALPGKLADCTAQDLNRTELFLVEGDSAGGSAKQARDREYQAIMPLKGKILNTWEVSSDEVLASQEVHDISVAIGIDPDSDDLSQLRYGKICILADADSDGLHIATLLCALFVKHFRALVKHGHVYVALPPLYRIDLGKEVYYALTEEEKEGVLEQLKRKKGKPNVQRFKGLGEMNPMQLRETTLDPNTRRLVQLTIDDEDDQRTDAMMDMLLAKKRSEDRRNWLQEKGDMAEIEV
E. coli topoisomerase IV, sequence (P0AFI2 whole entry partner): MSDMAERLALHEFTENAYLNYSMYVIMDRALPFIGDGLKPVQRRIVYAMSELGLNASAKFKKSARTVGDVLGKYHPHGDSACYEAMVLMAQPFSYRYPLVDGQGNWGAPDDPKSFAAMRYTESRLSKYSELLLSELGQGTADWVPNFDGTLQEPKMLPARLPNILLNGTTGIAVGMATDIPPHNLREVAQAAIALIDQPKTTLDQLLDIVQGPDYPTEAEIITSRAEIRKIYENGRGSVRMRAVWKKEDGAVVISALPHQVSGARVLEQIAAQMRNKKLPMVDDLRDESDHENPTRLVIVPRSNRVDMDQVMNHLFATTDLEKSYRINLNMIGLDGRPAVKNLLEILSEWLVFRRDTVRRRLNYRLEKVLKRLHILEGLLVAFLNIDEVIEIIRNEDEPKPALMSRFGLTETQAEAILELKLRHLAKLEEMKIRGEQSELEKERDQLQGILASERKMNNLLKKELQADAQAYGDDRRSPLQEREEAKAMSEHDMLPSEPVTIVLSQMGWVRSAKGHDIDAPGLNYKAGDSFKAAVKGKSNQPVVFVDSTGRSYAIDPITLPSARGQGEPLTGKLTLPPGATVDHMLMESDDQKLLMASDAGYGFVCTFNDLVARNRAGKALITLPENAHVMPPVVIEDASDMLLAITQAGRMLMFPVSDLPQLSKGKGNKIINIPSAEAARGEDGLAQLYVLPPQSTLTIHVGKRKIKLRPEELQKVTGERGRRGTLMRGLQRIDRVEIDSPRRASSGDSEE
human DNA topoisomerase IIα, sequence (P11388 whole entry): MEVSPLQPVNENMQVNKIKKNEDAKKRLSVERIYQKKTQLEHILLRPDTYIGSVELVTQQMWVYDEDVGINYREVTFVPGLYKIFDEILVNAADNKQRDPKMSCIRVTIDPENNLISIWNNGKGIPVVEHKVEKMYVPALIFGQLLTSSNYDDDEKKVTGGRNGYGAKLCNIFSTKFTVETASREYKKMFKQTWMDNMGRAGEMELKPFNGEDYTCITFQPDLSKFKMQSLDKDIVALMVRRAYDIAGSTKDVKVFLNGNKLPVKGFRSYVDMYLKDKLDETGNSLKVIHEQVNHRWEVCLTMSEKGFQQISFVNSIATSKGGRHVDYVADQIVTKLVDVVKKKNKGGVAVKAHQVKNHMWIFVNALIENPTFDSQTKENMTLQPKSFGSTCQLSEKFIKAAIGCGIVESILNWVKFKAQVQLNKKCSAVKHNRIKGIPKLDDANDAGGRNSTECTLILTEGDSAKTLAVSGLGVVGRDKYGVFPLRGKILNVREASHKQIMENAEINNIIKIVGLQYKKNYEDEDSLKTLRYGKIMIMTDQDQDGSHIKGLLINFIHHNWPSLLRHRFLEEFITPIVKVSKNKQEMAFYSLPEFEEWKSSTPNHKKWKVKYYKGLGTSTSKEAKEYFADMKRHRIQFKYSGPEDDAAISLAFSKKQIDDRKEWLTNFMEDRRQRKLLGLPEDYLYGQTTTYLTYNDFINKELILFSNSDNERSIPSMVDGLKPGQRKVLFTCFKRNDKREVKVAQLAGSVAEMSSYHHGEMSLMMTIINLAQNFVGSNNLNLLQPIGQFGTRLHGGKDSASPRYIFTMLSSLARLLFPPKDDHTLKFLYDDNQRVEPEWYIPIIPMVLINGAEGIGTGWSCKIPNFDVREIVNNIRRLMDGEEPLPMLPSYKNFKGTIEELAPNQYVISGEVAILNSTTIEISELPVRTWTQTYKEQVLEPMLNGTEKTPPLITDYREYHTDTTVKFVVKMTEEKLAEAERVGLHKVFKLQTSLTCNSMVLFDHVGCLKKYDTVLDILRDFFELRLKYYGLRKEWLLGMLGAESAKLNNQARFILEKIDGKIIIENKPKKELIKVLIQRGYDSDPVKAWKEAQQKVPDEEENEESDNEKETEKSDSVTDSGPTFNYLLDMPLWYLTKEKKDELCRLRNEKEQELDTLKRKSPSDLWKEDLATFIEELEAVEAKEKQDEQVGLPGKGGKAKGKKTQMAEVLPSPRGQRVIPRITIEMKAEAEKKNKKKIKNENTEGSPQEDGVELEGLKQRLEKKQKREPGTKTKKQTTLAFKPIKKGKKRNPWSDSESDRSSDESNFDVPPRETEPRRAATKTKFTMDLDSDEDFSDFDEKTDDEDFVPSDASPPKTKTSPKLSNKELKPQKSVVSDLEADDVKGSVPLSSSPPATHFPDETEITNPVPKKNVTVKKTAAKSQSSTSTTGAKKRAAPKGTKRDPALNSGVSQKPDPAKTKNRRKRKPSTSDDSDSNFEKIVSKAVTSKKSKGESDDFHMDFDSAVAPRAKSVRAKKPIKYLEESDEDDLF
S. aureus DNA gyrase, sequence (P0A0K8 whole entry): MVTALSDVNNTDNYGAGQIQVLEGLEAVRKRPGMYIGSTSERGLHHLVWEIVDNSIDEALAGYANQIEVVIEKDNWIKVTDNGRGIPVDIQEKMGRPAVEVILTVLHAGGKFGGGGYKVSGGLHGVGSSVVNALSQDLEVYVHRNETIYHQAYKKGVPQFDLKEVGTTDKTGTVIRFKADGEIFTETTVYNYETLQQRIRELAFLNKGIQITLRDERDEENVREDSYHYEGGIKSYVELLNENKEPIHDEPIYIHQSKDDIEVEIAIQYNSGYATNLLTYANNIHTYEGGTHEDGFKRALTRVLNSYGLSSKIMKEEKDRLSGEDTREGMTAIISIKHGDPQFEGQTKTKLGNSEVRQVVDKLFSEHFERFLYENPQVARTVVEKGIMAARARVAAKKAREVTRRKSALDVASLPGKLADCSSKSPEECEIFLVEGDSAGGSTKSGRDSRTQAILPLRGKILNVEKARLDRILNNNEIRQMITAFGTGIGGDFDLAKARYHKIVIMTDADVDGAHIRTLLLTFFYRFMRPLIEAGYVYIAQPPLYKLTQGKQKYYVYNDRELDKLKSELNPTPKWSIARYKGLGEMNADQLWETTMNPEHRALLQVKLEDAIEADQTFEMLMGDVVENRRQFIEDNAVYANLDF
S. aureus DNA gyrase, sequence (P20831 whole entry partner): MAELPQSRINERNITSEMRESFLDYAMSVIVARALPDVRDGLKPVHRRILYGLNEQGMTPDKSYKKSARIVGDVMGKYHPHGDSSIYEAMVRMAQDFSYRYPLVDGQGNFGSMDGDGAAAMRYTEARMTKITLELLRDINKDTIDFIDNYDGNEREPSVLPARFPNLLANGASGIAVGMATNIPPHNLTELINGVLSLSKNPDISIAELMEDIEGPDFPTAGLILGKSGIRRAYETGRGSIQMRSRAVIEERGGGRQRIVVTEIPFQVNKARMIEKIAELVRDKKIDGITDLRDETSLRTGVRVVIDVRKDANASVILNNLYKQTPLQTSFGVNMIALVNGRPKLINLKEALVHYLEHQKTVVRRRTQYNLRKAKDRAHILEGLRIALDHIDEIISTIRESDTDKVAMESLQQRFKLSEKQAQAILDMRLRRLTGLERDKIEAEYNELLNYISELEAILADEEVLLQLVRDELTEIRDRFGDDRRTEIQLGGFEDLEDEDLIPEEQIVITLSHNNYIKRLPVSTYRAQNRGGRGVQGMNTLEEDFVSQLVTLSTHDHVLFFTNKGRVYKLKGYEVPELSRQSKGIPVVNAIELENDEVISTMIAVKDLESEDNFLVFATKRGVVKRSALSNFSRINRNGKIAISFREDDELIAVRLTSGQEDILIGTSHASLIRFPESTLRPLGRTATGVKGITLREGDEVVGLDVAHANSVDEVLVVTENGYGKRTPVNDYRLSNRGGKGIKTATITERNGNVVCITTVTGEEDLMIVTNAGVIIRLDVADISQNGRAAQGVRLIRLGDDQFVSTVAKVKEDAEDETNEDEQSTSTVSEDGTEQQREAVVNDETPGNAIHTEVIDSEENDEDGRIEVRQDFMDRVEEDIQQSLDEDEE

Row | Compound | IC50 (E. coli DNA gyrase) | remaining activity at 1 µM (E. coli topoisomerase IV) | MIC [3] | MIC [4] | MIC (A. baumannii ATCC 17978) | MIC [5] | MIC (K. pneumoniae ATCC 10031 [6]) | MIC (S. aureus ATCC 29213 [7]) | MIC (E. coli ATCC 25922) | MIC (P. aeruginosa ATCC 27853) | MIC (E. faecalis ATCC 29212) | MIC (A. baumannii ATCC 19606) | MIC [8] | MIC (K. aerogenes ATCC 13408) | also measured
1 | Cc1[nH]c(C(=O)Nc2ccc(C(=O)NCC(=O)O)cc2N2CCN(C(=O)OC(C)(C)C)CC2)c(Cl)c1Cl [Compound 8a, (3-(4-(tert-Butoxycarbonyl)piperazin-1-yl)-4-(3,4-dichloro-5-methyl-1H-pyrrole-2-carboxamido)benzoyl)glycine] | 84.1 nM | 93% | – | – | – | – | – | – | – | – | – | – | – | – | remaining activity at 1 µM [1]: 22%; remaining activity at 1 µM (S. aureus DNA gyrase): 37%
2 | Cc1[nH]c(C(=O)Nc2ccc(C(=O)NCC(=O)O)cc2N2CC[C@H](N)C2)c(Cl)c1Cl [Compound 10b, (S)-1-(5-((Carboxymethyl)carbamoyl)-2-(3,4-dichloro-5-methyl-1H-pyrrole-2-carboxamido)phenyl)pyrrolidin-3-aminium chloride] | 19.3 nM | – | – | – | – | – | – | – | – | – | – | – | – | – | IC50 [1]: 2560 nM; remaining activity at 10 µM [2]: 82%; IC50 (E. coli topoisomerase IV): 958 nM; IC50 (S. aureus DNA gyrase): 112 nM
3 | Cc1[nH]c(C(=O)Nc2ccc(C(=O)O)cc2N2CCN(c3ccccc3)CC2)c(Cl)c1Cl [Compound 18h, 4-(3,4-Dichloro-5-methyl-1H-pyrrole-2-carboxamido)-3-(4-phenylpiperazin-1-yl)benzoic acid] | – | – | > 64 µg/mL | > 64 µg/mL | > 64 µg/mL | > 64 µg/mL | > 64 µg/mL | > 64 µg/mL | > 64 µg/mL | > 64 µg/mL | > 64 µg/mL | – | – | – | remaining activity at 10 µM (E. coli topoisomerase IV): 85%
4 | COC(=O)c1ccc(NC(=O)c2[nH]c(C)c(Cl)c2Cl)c(N2CCNCC2)c1.Cl [Compound 19a, 4-(2-(3,4-Dichloro-5-methyl-1H-pyrrole-2-carboxamido)-5-(methoxycarbonyl)phenyl)piperazin-1-ium chloride] | 100 nM | 102% | – | – | – | – | – | > 32 µg/mL | > 32 µg/mL | > 32 µg/mL | – | 16 µg/mL | > 32 µg/mL | > 32 µg/mL | remaining activity at 1 µM [1]: 95%; remaining activity at 1 µM (S. aureus DNA gyrase): 45%
5 | COC(=O)c1ccc(NC(=O)c2[nH]c(C)c(Cl)c2Cl)c(N2CCC[C@H](N)C2)c1.Cl [Compound 19c, (S)-1-(2-(3,4-Dichloro-5-methyl-1H-pyrrole-2-carboxamido)-5-(methoxycarbonyl)phenyl)piperidin-3-aminium chloride] | 120 nM | 79% | – | – | – | – | 4 µg/mL | 8 µg/mL | > 32 µg/mL | > 32 µg/mL | – | 16 µg/mL | > 32 µg/mL | > 32 µg/mL | remaining activity at 1 µM (S. aureus DNA gyrase): 27%
6 | Cc1[nH]c(C(=O)Nc2ccc(C(=O)O)cc2N2CCNCC2)c(Cl)c1Cl.Cl [Compound 20a, 4-(5-Carboxy-2-(3,4-dichloro-5-methyl-1H-pyrrole-2-carboxamido)phenyl)piperazin-1-ium chloride] | – | 106% | > 64 µg/mL | > 64 µg/mL | > 64 µg/mL | > 64 µg/mL | > 64 µg/mL | > 32 µg/mL | > 32 µg/mL | > 32 µg/mL | – | > 32 µg/mL | > 32 µg/mL | > 32 µg/mL | remaining activity at 1 µM [1]: 92%; remaining activity at 40 µM [2]: 116%
7 | Cc1[nH]c(C(=O)Nc2ccc(C(=O)O)cc2N2CCC[C@H](N)C2)c(Cl)c1Cl.Cl [Compound 20c, (S)-1-(5-Carboxy-2-(3,4-dichloro-5-methyl-1H-pyrrole-2-carboxamido)phenyl)piperidin-3-aminium chloride] | 134 nM | 78% | > 64 µg/mL | > 64 µg/mL | > 64 µg/mL | > 64 µg/mL | > 64 µg/mL | > 32 µg/mL | > 32 µg/mL | > 32 µg/mL | – | > 32 µg/mL | > 32 µg/mL | > 32 µg/mL | –
8 | Cc1[nH]c(C(=O)Nc2ccc(C(=O)O)cc2NC2CCNCC2)c(Cl)c1Cl.Cl [Compound 20d, 4-((5-Carboxy-2-(3,4-dichloro-5-methyl-1H-pyrrole-2-carboxamido)phenyl)amino)piperidin-1-ium chloride] | – | – | > 64 µg/mL | > 64 µg/mL | > 64 µg/mL | > 64 µg/mL | > 64 µg/mL | > 64 µg/mL | > 64 µg/mL | > 64 µg/mL | > 64 µg/mL | – | – | – | remaining activity at 10 µM (E. coli topoisomerase IV): 89%
9 | Cc1[nH]c(C(=O)Nc2ccc(-c3n[nH]c(=O)o3)cc2N2CCOCC2)c(Cl)c1Cl [Compound 22e, 3,4-Dichloro-5-methyl-N-(2-morpholino-4-(5-oxo-4,5-dihydro-1,3,4-oxadiazol-2-yl)phenyl)-1H-pyrrole-2-carboxamide] | – | – | 0.25 µg/mL (≈ 0.57 µM) | > 64 µg/mL | > 64 µg/mL | – | > 64 µg/mL | 0.25 µg/mL (≈ 0.57 µM) | > 64 µg/mL | > 64 µg/mL | 0.125 µg/mL (≈ 0.285 µM) | – | – | – | MIC (K. pneumoniae SE K13): > 64 µg/mL; MIC (K. pneumoniae SE K14): > 64 µg/mL; remaining activity at 100 µM [2]: 93%; MIC (K. pneumoniae K9–K25): > 64 µg/mL; IC50 (E. coli topoisomerase IV): 1230 nM; MIC (MRSA clinical isolate-2): 0.5 µg/mL (≈ 1.14 µM); MIC (K. pneumoniae NCTC 13440): > 64 µg/mL; MIC (MRSA clinical isolate-1): 0.5 µg/mL (≈ 1.14 µM)
10 | Cc1[nH]c(C(=O)Nc2ccc(-c3n[nH]c(=O)o3)cc2N2CCNCC2)c(Cl)c1Cl.Cl [Compound 23a, 4-(2-(3,4-Dichloro-5-methyl-1H-pyrrole-2-carboxamido)-5-(5-oxo-4,5-dihydro-1,3,4-oxadiazol-2-yl)phenyl)piperazin-1-ium chloride] | – | – | 4 µg/mL | > 64 µg/mL | > 64 µg/mL | – | 0.25 µg/mL | 2 µg/mL | > 64 µg/mL | > 64 µg/mL | 0.5 µg/mL | – | – | – | resistance-proneness compared to novobiocin (K. pneumoniae ATCC 10031 [9]): significantly less resistance-prone compared to novobiocin; MIC (K. pneumoniae SE K13): > 64 µg/mL; MIC (K. pneumoniae SE K14): > 64 µg/mL; remaining activity at 100 µM [2]: 86%; MIC (K. pneumoniae K9–K25): > 64 µg/mL; resistance-proneness compared to novobiocin (S. aureus ATCC 29213 [10]): significantly less resistance-prone compared to novobiocin; MIC (MRSA clinical isolate-2): 2 µg/mL; MIC (K. pneumoniae NCTC 13440): > 64 µg/mL; MIC (MRSA clinical isolate-1): 4 µg/mL
11 | Cc1[nH]c(C(=O)Nc2ccc(-c3n[nH]c(=O)o3)cc2NC2CCNCC2)c(Cl)c1Cl.Cl [Compound 23d, 4-((2-(3,4-Dichloro-5-methyl-1H-pyrrole-2-carboxamido)-5-(5-oxo-4,5-dihydro-1,3,4-oxadiazol-2-yl)phenyl)amino)piperidin-1-ium chloride] | – | – | > 64 µg/mL | > 64 µg/mL | > 64 µg/mL | > 64 µg/mL | 2 µg/mL | > 64 µg/mL | > 64 µg/mL | > 64 µg/mL | > 64 µg/mL | – | – | – | remaining activity at 10 µM [2]: 99%; IC50 (E. coli topoisomerase IV): 1260 nM
12 | Cc1[nH]c(C(=O)Nc2ccc(-c3n[nH]c(=O)o3)cc2OCc2ccccc2)c(Cl)c1Cl [Compound 39, N-(2-(Benzyloxy)-4-(5-oxo-4,5-dihydro-1,3,4-oxadiazol-2-yl)phenyl)-3,4-dichloro-5-methyl-1H-pyrrole-2-carboxamide] | – | 101% | > 32 µg/mL | > 32 µg/mL | > 32 µg/mL | > 32 µg/mL | > 32 µg/mL | > 32 µg/mL | > 32 µg/mL | > 32 µg/mL | > 32 µg/mL | – | – | – | remaining activity at 100 µM [2]: 104%
